Reference: patent US20030027799A1, “Methods of treating cancer using a combination of drugs” (priority 2001, published 2003)

Experiments:
[1] = Dose escalation study of β-L-OddC and cisplatin in cancer patients: dose limiting toxicity, maximum tolerated dose; assay type: in vivo; details: β-L-OddC in combination with cisplatin 50 mg/m^2, administered every four weeks
From the text: The patients selected were adult patients with solid tumours that were refractory to standard therapies. […] They had adequate bone marrow, renal and hepatic function. There were 33 patients treated. Sixteen were male patients and seventeen were female. Twenty patients had colorectal cancer. Two patients had melanoma. One patient each had gastric cancer, islet cell cancer of the pancreas, non-small lung cancer (NSCLC), renal cancer, cervical cancer, breast cancer, ovarian cancer, squamous cell cancer of the pelvis, liver cancer, abdominal cancer and penile cancer. […] The terms LP and HP refer to lightly pre-treated and heavily pre-treated patient status. The term DLT refers to Dose limiting Toxicity.

[2] = tested on: various forms of cancers (e.g. solid tumours, adult leukemia and lymphomas); details: Weitman 2000, Giles 2001, Gourdeau 2001; cited from earlier work

Nc1ccn([C@@H]2CO[C@H](CO)O2)c(=O)n1 [β-L-OddC, (−)-β-L-Dioxolane-Cytidine]
recommended dose for heavily pre-treated patients [1]: 4.8 mg/m^2
activity in the treatment of various forms of cancers [2]: potent activity
